Data taken from article PMC8989888, “Development of optimized drug-like small molecule inhibitors of the SARS-CoV-2 3CL protease for treatment of COVID-19” (Nature Communications, 2022).
Where “and” joins values, the source holds several entries; their conditions need not be identical. Identical values can stand only once. Like-named read-outs stand apart in the source and are kept apart here.

Assays:
[1] = Mouse liver microsome stability; conditions: liver microsomes, second (control) series
[2] = test system: Human coronavirus beta (strain: OC43); test: organism not typed; assay type: cell-based, HCoV-OC43; conditions: Huh-7, read-out: EC50, human coronavirus OC43
[3] = target: SARS-CoV-2; test: cell-based
[4] = test system: SARS-CoV-2; test: microbe, parasite or virus in culture; assay type: cell-based
[5] = test system: Human coronavirus alpha (strain: 229E); test: organism not typed; assay type: cell-based, HCoV-229E; conditions: Huh-7, read-out: EC50, human coronavirus 229E
[6] = test system: SARS-CoV-2; test: microbe, parasite or virus in culture; assay type: cell-based; conditions: Severe acute respiratory syndrome coronavirus 2, read-out: SARS-CoV-2 EC50
[7] = test system: SARS-CoV-2; test: microbe, parasite or virus in culture; assay type: cell-based; conditions: for EC50: Severe acute respiratory syndrome coronavirus 2, 24 h, read-out: SARS-CoV-2 Huh-7ACE2 EC50
[8] = in vitro
[9] = test system: Influenza A H1N1 (strain: California/07/2009); test: microbe, parasite or virus in culture; assay type: cell-based
[10] = target: T1, SARS-CoV-2 3CL protease (Severe acute respiratory syndrome coronavirus 2, UniProt P0DTD1); test: biochemical
[11] = test system: SARS-CoV-2; test: microbe, parasite or virus in culture; conditions: Severe acute respiratory syndrome coronavirus 2, Caco-2, 72 h, read-out: SARS-CoV-2 Caco-2 EC90
[12] = target: T1, SARS-CoV-2 3CL protease; test: biochemical; conditions: for kinact/KI: read-out: SARS-CoV-2 3CLpro kinact/KI
[13] = target: T1, SARS-CoV-2 3CL protease; assay type: binding
[14] = test system: SARS-CoV-2; conditions: read-out: SARS-CoV-2 antiviral EC50; cited from earlier work
[15] = in vitro; conditions: CD-1, mouse, microsomes, pH 7.4
[16] = in vitro; conditions: human, plasma
[17] = test system: human chymotrypsin; test: Chymotrypsin activity assay (Panc-1 cell lysate); assay type: biochemical
[18] = target: T1, SARS-CoV-2 3CL protease; assay type: binding; remark: listed apart in the source
[19] = in vitro; conditions: human, microsomes, pH 7.4
[20] = in vitro; conditions: CD-1, mouse, plasma
[21] = Severe acute respiratory syndrome coronavirus 2, Vero C1008, read-out: SARS-CoV-2 Vero E6 EC50
[22] = 20 nM protease, read-out: SARS-CoV-2 3CLpro IC50
[23] = Concentration of inhibitor (nM) 0.19382
[24] = Concentration of inhibitor (nM) 0.49485
[25] = Concentration of inhibitor (nM) 0.79588
[26] = Concentration of inhibitor (nM) 1.09691
[27] = Concentration of inhibitor (nM) 1.39794
[28] = Concentration of inhibitor (nM) 1.69897
[29] = Concentration of inhibitor (nM) 2
[30] = Concentration of inhibitor (nM) 2.60206
[31] = Concentration of inhibitor (nM) -0.10721
[32] = Concentration of inhibitor (nM) -0.40824

Row | Molecule | EC50 [3] [nM] | EC50 [4, 21] [nM] | inhibition of SARS-CoV-2 (Figure s17b dose-response, replicate values) [7] | EC50 [7] [nM] | IC50 [10, 22] [nM] | normalized activity, dose-response curve (Figure S16) [10, 23] | normalized activity, dose-response curve (Figure S16) [10, 24] | normalized activity, dose-response curve (Figure S16) [10, 25] | normalized activity, dose-response curve (Figure S16) [10, 26] | normalized activity, dose-response curve (Figure S16) [10, 27] | normalized activity, dose-response curve (Figure S16) [10, 28] | normalized activity, dose-response curve (Figure S16) [10, 29] | normalized activity, dose-response curve (Figure S16) [10, 30] | normalized activity, dose-response curve (Figure S16) [10, 31] | normalized activity, dose-response curve (Figure S16) [10, 32] | observed inactivation rate vs compound concentration (Figure S19, replicate values) [12] | kinact/KI [12] [M⁻¹ s⁻¹] | binding to 3CL protease by mass spectrometry (in words) [13] | EC50 [14] [nM] | also measured
1 | CCOc1ccc2ccc(=O)oc2c1 [7-ethoxycoumarin] |  |  |  |  |  |  |  |  |  |  |  |  |  |  |  |  |  |  |  | percent remaining (Figure S11f) ([1]; Time T0 min): 100; percent remaining (Figure S11f) ([1]; Time T40 min): 93.3574 and 91.0789; percent remaining (Figure S11f) ([1]; Time T80 min): 86.8345 and 92.3642
2 | CC(C)C[C@H](NC(=O)OCc1cccc(Cl)c1)C(=O)N[C@@H](C[C@@H]1CCNC1=O)C(O)S(=O)(=O)O (some centres unmarked) [EB46] | 1100 | 2000 | 95.1515 and 86.8894 and 89.9129 and 91.3208 and 86.4116 and 95.1857 and 65.8333 and 65.5396 and 57.9806 and 19.6057 and 31.892 and 43.1913 and 11.28 and 11.1506 and 22.0558 and -4.012 and 10.0819 and 19.0531 and -4.489 and -1.7527 and 16.6924 | 14 | 23 | 94.5875 and 99.4983 | 85.636 and 94.5724 | 82.4718 and 89.5097 | 66.6922 and 69.8061 | 43.7931 and 49.1904 | 26.3066 and 19.407 | 3.283 and 4.675 | 0.4514 and 0.7525 | 95.5867 and 98.0844 | 100 | 0.066 and 0.0593 and 0.077 and 0.0911 and 0.0219 and 0.0804 and 0.0309 and 0.0674 and 0.0293 and 0.0341 and 0.0137 and 0.0021 and 0.0076 and 0.0213 and 0.0308 and 0.0151 and 0.0444 and 0.0119 | 55000 |  |  | EC50 [2]: < 100 nM; EC50 [5]: < 100 nM; EC50 [6]: 47 nM; CC50 [8]: > 100000 nM; effect on replication of Influenza H1N1 (in words) [9]: no effect was observed; EC50 ([9]; Influenza A virus, H1N1, MDCK, read-out: Influenza A (H1N1) MDCK EC50): > 100000 nM; normalized activity, dose-response curve (Figure S16) ([10]; Concentration of inhibitor (nM) 2.30103): 2.2 and 3.398; EC90 [11]: 53 nM
3 | CC(C)C[C@H](NC(=O)OCc1ccc2ccccc2c1)C(=O)N[C@@H](C[C@@H]1CCNC1=O)C(O)S(=O)(=O)O (some centres unmarked) [EB56] | 800 | 4000 | 102.227 and 102.618 and 99.1767 and 91.8872 and 92.3176 and 92.3719 and 59.4672 and 57.4366 and 41.3693 and 36.9002 and 26.4205 and 14.778 and 9.09 and 16.3686 and 1.374 and -4.092 and 13.2513 and -12.3171 and 9.345 and 11.9707 and 3.907 | 28 | 50 | 89.823 and 93.9936 | 85.2362 and 82.2757 | 85.487 and 88.0978 | 72.8375 and 72.1422 | 69.3615 and 64.0723 | 53.5944 and 48.1904 | 29.9078 and 31.2768 | 3.964 and 3.456 | 94.804 and 91.5247 | 100 | 0.0572 and 0.0815 and 0.095 and 0.0426 and 0.0949 and 0.1078 and 0.0732 and 0.0307 and 0.0058 and 0.0365 and 0.0284 and 0.0434 and 0.0176 and 0.0243 and -0.00666 and 0.0205 and 0.0022 and 0.0219 and 0.0071 and 0.0016 and -0.00538 | 18300 | blocked the covalent binding of 10 equivalents of compound 4 |  | 
4 | CC(C)(C)[C@H](NC(=O)C(F)(F)F)C(=O)N1C[C@H]2[C@@H]([C@H]1C(=O)N[C@H](C#N)C[C@@H]1CCNC1=O)C2(C)C [PF-07321332] |  |  |  |  |  |  |  |  |  |  |  |  |  |  |  |  |  |  | 78 | 
5 | CCOC(=O)C=CC(CC1CCNC1=O)NC(=O)C(CC(C)C)NC(=O)C(NC(=O)OCc1ccccc1)C(C)OC(C)(C)C (centres unmarked) [compound 4] |  |  |  |  |  |  |  |  |  |  |  |  |  |  |  |  |  | one-to-one complex |  | half-life [15]: 7.3 min; half-life [16]: > 240 min; EC50 ([4]; Severe acute respiratory syndrome coronavirus 2, Vero C1008, 72 h, read-out: EC50, inhibition of SARS-CoV-2 viral replication): 800 nM; concentration above which precipitates formed: above 100 µM; Normalized chymotrypsin activity [17]: 0.9372 and 0.8587 and 0.9322; binding stoichiometry [18]: 0.97 ± 0.06; half-life [19]: 19 min; half-life [20]: 10 min; Normalized SARS-CoV-2 3CL protease activity [10]: 0.006645 and 0.009809 and 0.01123; IC50 ([10]; IC50): 123 nM
6 | PF-00835231 |  |  |  |  |  |  |  |  |  |  |  |  |  |  |  |  |  |  | 221 | 
